Reference: patent US20250352520A1, “USE OF DEXPRAMIPEXOLE FOR THE TREATMENT OF EOSINOPHILIC COPD” (Areteia Therapeutics, Inc., priority 2024, published 2025)

Details: Week 12; <50% AEC reduction at Week 16

CCCN[C@@H]1CCc2nc(N)sc2C1 [Dexpramipexole, (6R)-2-amino-4,5,6,7-tetrahydro-6-(propylamino)benzothiazole]
Pre-BD FEF25-75 % change from baseline, Max: 47% | Pre-BD FEF25-75 % change from baseline, Mean ± SD: 23.9 ± 28.49% | Pre-BD FEF25-75 % change from baseline, Median: 30.3% | Pre-BD FEF25-75 % change from baseline, Min: −12% | Pre-BD FEF25-75 % change from baseline, Q1: 1% | Pre-BD FEF25-75 % change from baseline, Q3: 47% | Pre-BD FEF25-75 Observed, Max: 2050 mL/s | Pre-BD FEF25-75 Observed, Mean ± SD: 857.5 ± 805.29 mL/s | Pre-BD FEF25-75 Observed, Median: 515.0 mL/s | Pre-BD FEF25-75 Observed, Min: 350 mL/s | Pre-BD FEF25-75 Observed, Q1: 370 mL/s | Pre-BD FEF25-75 Observed, Q3: 1345 mL/s | Pre-BD FEF25-75 change from baseline, Max: 660 mL/s | Pre-BD FEF25-75 change from baseline, Mean ± SD: 182.5 ± 329.18 mL/s | Pre-BD FEF25-75 change from baseline, Median: 80.0 mL/s | Pre-BD FEF25-75 change from baseline, Min: -90 mL/s | Pre-BD FEF25-75 change from baseline, Q1: -20 mL/s | Pre-BD FEF25-75 change from baseline, Q3: 385 mL/s | Pre-BD FEV1 % change from baseline, Max: 41% | Pre-BD FEV1 % change from baseline, Mean ± SD: 10.1 ± 21.78% | Pre-BD FEV1 % change from baseline, Median: 4.2% | Pre-BD FEV1 % change from baseline, Min: −9% | Pre-BD FEV1 % change from baseline, Q1: −3% | Pre-BD FEV1 % change from baseline, Q3: 23% | Pre-BD FEV1 Observed, Max: 2940 mL | Pre-BD FEV1 Observed, Mean ± SD: 1672.5 ± 886.84 mL | Pre-BD FEV1 Observed, Median: 1440.0 mL | Pre-BD FEV1 Observed, Min: 870 mL | Pre-BD FEV1 Observed, Q1: 1145 mL | Pre-BD FEV1 Observed, Q3: 2200 mL | Pre-BD FEV1 change from baseline, Max: 860 mL | Pre-BD FEV1 change from baseline, Mean ± SD: 200.0 ± 449.52 mL | Pre-BD FEV1 change from baseline, Median: 45.0 mL | Pre-BD FEV1 change from baseline, Min: -150 mL | Pre-BD FEV1 change from baseline, Q1: -55 mL | Pre-BD FEV1 change from baseline, Q3: 455 mL | Pre-BD FVC % change from baseline, Max: 10% | Pre-BD FVC % change from baseline, Mean ± SD: −3.1 ± 11.75% | Pre-BD FVC % change from baseline, Median: −2.9% | Pre-BD FVC % change from baseline, Min: −17% | Pre-BD FVC % change from baseline, Q1: −12% | Pre-BD FVC % change from baseline, Q3: 6% | Pre-BD FVC Observed, Max: 3990 mL | Pre-BD FVC Observed, Mean ± SD: 2942.5 ± 825.44 mL | Pre-BD FVC Observed, Median: 2830.0 mL | Pre-BD FVC Observed, Min: 2120 mL | Pre-BD FVC Observed, Q1: 2300 mL | Pre-BD FVC Observed, Q3: 3585 mL | Pre-BD FVC change from baseline, Max: 370 mL | Pre-BD FVC change from baseline, Mean ± SD: -52.5 ± 345.68 mL | Pre-BD FVC change from baseline, Median: -75.0 mL | Pre-BD FVC change from baseline, Min: -430 mL | Pre-BD FVC change from baseline, Q1: -320 mL | Pre-BD FVC change from baseline, Q3: 215 mL | Pre-BD Peak Flow % change from baseline, Max: 478% | Pre-BD Peak Flow % change from baseline, Mean ± SD: 121.7 ± 237.65% | Pre-BD Peak Flow % change from baseline, Median: 12.2% | Pre-BD Peak Flow % change from baseline, Min: −15% | Pre-BD Peak Flow % change from baseline, Q1: −5% | Pre-BD Peak Flow % change from baseline, Q3: 249% | Pre-BD Peak Flow Observed, Max: 246 L/min | Pre-BD Peak Flow Observed, Mean ± SD: 204.8 ± 42.39 L/min | Pre-BD Peak Flow Observed, Median: 210.5 L/min | Pre-BD Peak Flow Observed, Min: 152 L/min | Pre-BD Peak Flow Observed, Q1: 171 L/min | Pre-BD Peak Flow Observed, Q3: 239 L/min | Pre-BD Peak Flow change from baseline, Max: 191 L/min | Pre-BD Peak Flow change from baseline, Mean ± SD: 48.3 ± 98.44 L/min | Pre-BD Peak Flow change from baseline, Median: 18.0 L/min | Pre-BD Peak Flow change from baseline, Min: -34 L/min | Pre-BD Peak Flow change from baseline, Q1: -12 L/min | Pre-BD Peak Flow change from baseline, Q3: 108 L/min
